Experimental data: paper PMC9033836, “Determination of key residues in MRGPRX2 to enhance pseudo-allergic reactions induced by fluoroquinolones” (Scientific Reports, 2022)
Changes are numbered by the printed parent chain.

How the values were obtained:
Assay in all cases: intracellular calcium mobilisation (FLIPR Tetra), transiently transfected HEK293
Format in all cases: cell-based
[1] = biological target: T1, human MRGPRX2 (Homo sapiens, UniProt Q96LB1); conditions: highest concentration of fluoroquinolones 1000 µg/mL; HBSS pH 7.4, 20 mM HEPES, 0.05% BSA
T1 construct: full-length gene in pcDNA3.1(+), transiently transfected HEK293 cells (JCRB)
T1 sequence (Q96LB1 1-330): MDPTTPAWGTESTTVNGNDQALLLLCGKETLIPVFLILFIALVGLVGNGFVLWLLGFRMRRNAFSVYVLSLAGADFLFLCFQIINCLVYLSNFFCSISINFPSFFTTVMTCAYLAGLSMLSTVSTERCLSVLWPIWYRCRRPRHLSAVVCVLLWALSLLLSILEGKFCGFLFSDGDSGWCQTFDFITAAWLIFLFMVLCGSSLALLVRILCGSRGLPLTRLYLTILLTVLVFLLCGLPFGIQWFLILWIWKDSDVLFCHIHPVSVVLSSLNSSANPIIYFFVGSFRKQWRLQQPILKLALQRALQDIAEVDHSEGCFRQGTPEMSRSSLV

[2] = biological target: T2, dog MRGPRX2 (Canis lupus, UniProt A0A4Y5P885); conditions: highest concentration of fluoroquinolones 1000 µg/mL; HBSS pH 7.4, 20 mM HEPES, 0.05% BSA
T2 construct: gene in pcDNA3.1(+), transiently transfected HEK293 cells (JCRB)
T2 sequence (A0A4Y5P885 1-417): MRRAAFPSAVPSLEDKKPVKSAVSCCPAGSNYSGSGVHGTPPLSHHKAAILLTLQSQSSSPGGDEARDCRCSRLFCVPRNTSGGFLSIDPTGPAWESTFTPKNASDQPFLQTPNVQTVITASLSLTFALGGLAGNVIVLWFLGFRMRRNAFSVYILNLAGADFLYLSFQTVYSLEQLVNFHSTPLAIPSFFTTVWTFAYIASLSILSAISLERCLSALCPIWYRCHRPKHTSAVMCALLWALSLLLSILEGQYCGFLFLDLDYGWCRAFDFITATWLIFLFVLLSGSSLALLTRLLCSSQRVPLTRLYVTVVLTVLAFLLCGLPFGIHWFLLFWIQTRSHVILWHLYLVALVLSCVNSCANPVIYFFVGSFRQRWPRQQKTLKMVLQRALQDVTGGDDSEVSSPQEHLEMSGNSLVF

[3] = biological target: T3, human MRGPRX2 (Homo sapiens, UniProt Q96LB1, F78Y); conditions: read-out: EC50 (μg/mL) ± SD (P value) / Human / F78Y (converted)
T3 construct: full-length gene in pcDNA3.1(+), transiently transfected HEK293 cells (JCRB)
T3 sequence (Q96LB1 1-330 F78Y): T1 sequence (Q96LB1 1-330) with F78Y
Source text: (§1) intracellular calcium mobilisation (FLIPR Tetra), transiently transfected HEK293 on human MRGPRX2

[4] = biological target: T1, human MRGPRX2; conditions: read-out: EC50 (μg/mL) ± SD (P value) / Human / Wild type (converted)
Source text: as §1

[5] = biological target: T4, human MRGPRX2 (Homo sapiens, UniProt Q96LB1, F78Y/M109W); conditions: read-out: EC50 (μg/mL) ± SD (P value) / Human / F78Y/M109W (converted)
T4 construct: full-length gene in pcDNA3.1(+), transiently transfected HEK293 cells (JCRB)
T4 sequence (Q96LB1 1-330 F78Y/M109W): T1 sequence (Q96LB1 1-330) with F78Y, M109W
Source text: as §1

[6] = biological target: T5, human MRGPRX2 (Homo sapiens, UniProt Q96LB1, M109W); conditions: read-out: EC50 (μg/mL) ± SD (P value) / Human / M109W (converted)
T5 construct: full-length gene in pcDNA3.1(+), transiently transfected HEK293 cells (JCRB)
T5 sequence (Q96LB1 1-330 M109W): T1 sequence (Q96LB1 1-330) with M109W
Source text: as §1

[7] = biological target: T2, dog MRGPRX2; conditions: read-out: EC50 (μg/mL) ± SD (P value) / Dog / Wild type (converted)
Source text: intracellular calcium mobilisation (FLIPR Tetra), transiently transfected HEK293 on dog MRGPRX2

Row | EC50 [3] [µM] | EC50 [4] [µM] | EC50 [5] [µM] | EC50 [6] [µM] | EC50 [7] [µM] | Structure (SMILES) | intracellular calcium mobilisation (FLIPR Tetra), transiently transfected HEK293 [1] | intracellular calcium mobilisation (FLIPR Tetra), transiently transfected HEK293 [2]
1 |  |  |  |  |  | C[C@H]1COc2c(C3(N)CC3)c(F)cc3c(=O)c(C(=O)O)cn1c23 [PZFX] | PZFX ... did not induce intracellular calcium mobilisation in any of the cells | PZFX ... did not induce intracellular calcium mobilisation in any of the cells
2 | 1380 | 1800 | 498 | 581 | 249 | C[C@H]1COc2c(N3CCN(C)CC3)c(F)cc3c(=O)c(C(=O)O)cn1c23 [LVFX] |  | 
3 | 666 | 959 | 197 | 266 | 258 | COc1c(N2CCNC(C)C2)c(F)cc2c(=O)c(C(=O)O)cn(C3CC3)c12 (stereo not shown) [GFLX] |  | 
4 |  |  |  |  | 36.2 | O=C(O)c1cn(C2CC2)c2cc(N3CCNCC3)c(F)cc2c1=O [CPFX] |  | 
